Laboratory results taken from PMC5084075 (ACS Central Science, 2016).
pIC50: −log10 of the molar value. Like-named read-outs stand apart in the source and are kept apart here.

Tests used:
PfDHODH = molecular target: T1, PfDHODH (Plasmodium falciparum, UniProt Q08210); assay: biochemical; design: PfDHODH enzyme inhibition IC50; conditions: read-out: DHODH
T1 sequence (Q08210 1-569): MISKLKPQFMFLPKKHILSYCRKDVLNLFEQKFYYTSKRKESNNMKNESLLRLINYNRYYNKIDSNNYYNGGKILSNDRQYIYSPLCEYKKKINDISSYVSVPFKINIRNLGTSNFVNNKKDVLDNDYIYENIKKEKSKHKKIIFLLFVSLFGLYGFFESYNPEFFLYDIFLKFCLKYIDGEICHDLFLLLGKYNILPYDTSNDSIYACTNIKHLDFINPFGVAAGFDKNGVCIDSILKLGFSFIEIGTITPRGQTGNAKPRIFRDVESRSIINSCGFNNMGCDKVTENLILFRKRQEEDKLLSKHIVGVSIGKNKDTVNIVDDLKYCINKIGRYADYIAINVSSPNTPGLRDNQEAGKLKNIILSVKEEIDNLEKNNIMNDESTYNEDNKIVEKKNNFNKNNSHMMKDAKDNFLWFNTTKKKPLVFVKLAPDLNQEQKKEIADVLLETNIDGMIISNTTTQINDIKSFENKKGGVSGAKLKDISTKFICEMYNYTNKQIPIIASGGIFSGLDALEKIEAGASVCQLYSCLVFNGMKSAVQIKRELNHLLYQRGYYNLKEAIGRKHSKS
Text: The potency of the near neighbor set led to an in silico target prediction study being performed on OSM-S-39 (Text S11). The method employed a naive Bayes statistical model identifying molecular structural features of small molecules with protein targets, using the ChEMBL database. Similar statistical approaches based on known activities of compounds have been successfully applied to identify targets of antitubercular compounds.[112]−[114] A total of 1,287 proteins were included for which at least 50 active compounds were known with activities <10 μM, with the other compounds in the database comprising the inactives. After the OSM compounds were scored against each target, the scores obtained were standardized by comparison with scores obtained through comparison with a random set of >10K compounds. The prediction list was culled for proteins relevant to malaria (3D7 proteome), and the analysis gave as the most likely candidate targets, in order of significance, carboxy-terminal domain RNA polymerase II polypeptide A small phosphatase 1 (Q8I3U9), dihydroorotate dehydrogenase (DHODH, Q08210), SUMO-activating enzyme subunit 2 (Q8I553) and 1 (Q8IHS2), and cyclin-dependent kinase 1 (P61075). […] A line of inquiry remaining open is the equivalent assays against the other targets identified in the in silico prediction.

HEK293 = assay: cells; design: cytotoxicity counter-screen on HEK293 cells; conditions: Homo sapiens, cytotoxicity
Procedure: (§1) To confirm the promise of the two starting points OSM-S-5 and -6, they were evaluated against 3D7 (drug-sensitive) and K1 (chloroquine resistant) strains of Plasmodium falciparum in a whole cell assay and against HEK-293 cells as a cytotoxicity marker (Table SB1, Biological Protocols; tables with the prefix “SB” may be found in the Supporting Information). Biological data may be browsed in a static data set taken as a snapshot for this paper (Data Sets S1 (Excel), S2 (SDF)), online in a database constructed through periodic batch uploads,[68] or in a “living database” to which may be added future data;[69] the latter may be visualized in a web browser[70] using an open source system that was recently deployed in the Wikipedia Chemical Structure Explorer,[71] or the data may be downloaded and visualized offline with proprietary (Figure S4)[72] or open source (Figure S5)[73] tools). The evaluation was performed in three different institutions using different assays and widely employed controls; controls are important to assess reproducibility and interassay variability[74] but also to minimize possible bias in evaluating compounds where there are pre-existing data from other researchers already in the public domain (Figure S6).[75]

[1] = tested on: Plasmodium falciparum Pfal (strain not named in column head); assay: microbe, parasite or virus in culture; design: species or system P. falciparum blood stage culture; whole-cell asexual blood stage P. falciparum growth inhibition
Procedure: as §1

[2] = tested on: T2, Plasmodium falciparum 3D7; assay: microbe, parasite or virus in culture; design: species or system P. falciparum blood stage culture; whole-cell asexual blood stage P. falciparum growth inhibition; conditions: Avery assay, read-out: 3D7 / IC50nM
T2 construct: 3D7
Procedure: as §1

[3] = tested on: T3, Plasmodium falciparum K1 (chloroquine resistant); assay: microbe, parasite or virus in culture; design: species or system P. falciparum blood stage culture; whole-cell asexual blood stage P. falciparum growth inhibition
T3 construct: K1
Procedure: as §1

in vitro [4] = assay: in vitro; design: metabolic stability in human liver microsomes, LC-MS, NADPH, 0.4 mg/mL protein; conditions: liver microsomes, human liver microsomes; for microsomal CLint: read-out: CLint HLM (Monash); for half-life: read-out: t1/2 HLM (Monash)
Procedure: (§2) The two original GSK hits (OSM-S-5 and -6) and six NN compounds were evaluated for their kinetic solubility in phosphate buffer and their metabolic stability in human liver microsomes (Table SB5, Data Sets S20 and S21).

[5] = tested on: T4, Plasmodium falciparum Pfal (3D7); assay: microbe, parasite or virus in culture; design: species or system erythrocytes; P. falciparum asexual blood-stage whole-cell growth inhibition, IC50; conditions: 3D7, Erythrocyte, lab named in column head
T4 construct: 3D7
Procedure: as §1

[6] = tested on: T5, Plasmodium falciparum Pfal (K1); assay: microbe, parasite or virus in culture; design: species or system erythrocytes; P. falciparum asexual blood-stage whole-cell growth inhibition, IC50; conditions: K1, Erythrocyte
T5 construct: K1
Procedure: as §1

in vitro [7] = assay: in vitro; design: microsomal stability with NADPH, LC-MS, half-life and CLint; conditions: human, liver microsomes, HLM; for microsomal CLint: read-out: CLint HLM (Monash); for half-life: read-out: t1/2 HLM (Monash)
Procedure: as §2

[8] = Avery assay, read-out: K1 / IC50nM
[9] = Guy assay, read-out: Pfal (K1) IC50 (Guy)
[10] = lab named in column head, read-out: Pfal (K1) IC50 (Guy)

Cc1cc(C(=O)NCC(=O)Nc2c(C)n(C)n(-c3ccccc3)c2=O)c(C)n1-c1ccc(F)cc1 [OSM-S-21]
pIC50 (PfDHODH): < 4.30

Cc1cc(/C=C2\S/C(=N\c3cccc(O)c3)NC2=O)c(C)n1-c1ccc([N+](=O)[O-])cc1 [OSM-S-110]
inhibition at 40 µM (HEK293): 26%

COC(=O)COCc1cn(-c2ccc(F)cc2)nn1 [OSM-E-6]
pIC50 ([1]; Dundee assay): < 4.30

Cc1cc(C(=O)O)c(C)n1-c1ccc(F)cc1 [OSM-S-4]
pIC50 (PfDHODH): < 4.30

COc1cc(C)c2c(Oc3cccc(C(F)(F)F)c3)c(OC)cc(NC(C)CCCN)c2n1 (centres unmarked) [Tafenoquine]
pIC50 [2]: 6.35 | pIC50 [3, 8]: 6.35

Cc1ccc(-n2c(C)cc(/C=C3\SC(=Nc4ccccc4)NC3=O)c2C)cc1 [OSM-S-37]
microsomal CLint (in vitro [4]): 7 µL/min/mg | half-life (in vitro [4]): 4.08 h | pIC50 [3, 9]: 6.75 | pIC50 ([1]; Guy assay): 6.79 | pIC50 ([5]; read-out: Pfal IC50 (Guy)): 6.79 | pIC50 [6, 10]: 6.75 | pIC50 (PfDHODH): < 4.30 | microsomal CLint (in vitro [7]): 7 µL/min/mg | half-life (in vitro [7]): 4.08 h

Cc1cc(/C=C2\S/C(=N\c3ccccc3)NC2=O)c(C)n1-c1ccc(I)cc1 [OSM-A-4]
pIC50 [3, 9]: 5.50 | pIC50 ([1]; Guy assay): 5.76

Cc1cc(/C=C2\S/C(=N\c3ccccc3)N(CC#N)C2=O)c(C)n1-c1ccc(C(F)(F)F)cc1 [OSM-S-42]
pIC50 (PfDHODH): < 4.30

Cc1cc(/C=C2\S/C(=N\c3ccccc3)N(c3ccccc3)C2=O)c(C)n1-c1cccc(F)c1 [OSM-L-1]
pIC50 ([3]; Batra assay, read-out: Pfal (K1) IC50 (Batra)): < 5.30 | pIC50 ([1]; Batra assay): 5.49

CCOC(=O)c1ccc(-n2c(C)cc(/C=C3\S/C(=N/c4ccccc4)NC3=O)c2C)cc1 [OSM-S-48]
pIC50 (PfDHODH): < 4.30

COc1cccc(-n2c(C)cc(/C=C3\S/C(=N\c4ccccc4)NC3=O)c2C)c1 [OSM-A-3]
pIC50 [3, 9]: 6.85 | pIC50 ([1]; Guy assay): 7.01

CCOC(=O)c1cc(C)n(-c2ccc(F)cc2)c1C [OSM-S-3]
pIC50 (PfDHODH): < 4.30

COc1ccc(-n2c(C)cc(/C=C3\S/C(=N\c4cccc(O)c4)NC3=O)c2C)cc1 [OSM-S-112]
inhibition at 40 µM (HEK293): 38%

Cc1cc(S(=O)(=O)NCC(N)=O)c(C)n1-c1ccc(F)cc1 [OSM-E-2]
pIC50 ([1]; Dundee assay): < 4.30

Cc1cc(/C=C2\SC(N(CC#N)c3ccccc3)=NC2=O)c(C)n1-c1ccc(C(F)(F)F)cc1 [OSM-S-43]
pIC50 (PfDHODH): < 4.30

CCN(CC)CCCC(C)Nc1ccnc2cc(Cl)ccc12 (centres unmarked) [Chloroquine]
pIC50 [2]: 7.73 | pIC50 [3, 8]: 6.58

Cc1c(S(=O)(=O)N(C)CC(N)=O)c(S(=O)(=O)N(C)CC(N)=O)c(C)n1-c1ccc(F)cc1 [OSM-E-3]
pIC50 ([1]; Dundee assay): < 4.30

Cc1cc(C(=O)NCC(N)=O)c(C)n1-c1ccc(F)cc1 [OSM-S-19]
pIC50 (PfDHODH): < 4.30

Cc1cc(/C=C2\S/C(=N\c3cccc(O)c3)NC2=O)c(C)n1-c1ccccc1 [OSM-S-114]
inhibition at 40 µM (HEK293): 42%

Cc1cc(/C=C2\SC(=Nc3ccccc3)NC2=O)c(C)n1-c1ccc(S(N)(=O)=O)cc1 [OSM-A-1]
pIC50 [3, 9]: 5.36 | pIC50 ([1]; Guy assay): 5.52 | pIC50 ([5]; read-out: Pfal IC50 (Guy)): 5.52 | pIC50 [6, 10]: 5.36

Cc1cc(C(=O)Nc2c(C)n(C)n(-c3ccccc3)c2=O)c(C)n1-c1ccc(F)cc1 [OSM-S-8]
pIC50 (PfDHODH): < 4.30

Cc1cc(/C=C2\S/C(=N\c3ccccc3)NC2=O)c(C)n1-c1ccc(C#N)cc1 [OSM-A-2]
pIC50 [3, 9]: 5.74 | pIC50 ([1]; Guy assay): 6.24

NC(=O)COCc1cn(-c2ccc(F)cc2)nn1 [OSM-E-8]
pIC50 ([1]; Dundee assay): < 4.30

Cc1cc(C=O)c(C)n1-c1ccc(F)cc1 [OSM-S-2]
pIC50 (PfDHODH): < 4.30

C[C@@H]1CC[C@H]2[C@@H](C)C(=O)O[C@@H]3O[C@@]4(C)CC[C@@H]1[C@]32OO4 [Artemisinin]
pIC50 [2]: 8.22 | pIC50 ([6]; read-out: K1 / IC50nM): 9.21

Cc1cc(/C=C2\S/C(=N\c3ccccc3)NC2=O)c(C)n1-c1ccc(F)cc1 [OSM-S-10]
microsomal CLint (in vitro [4]): 17 µL/min/mg | half-life (in vitro [4]): 1.72 h | microsomal CLint (in vitro [7]): 17 µL/min/mg | half-life (in vitro [7]): 1.72 h

Cc1cc(S(=O)(=O)N(C)CC(N)=O)c(C)n1-c1ccc(F)cc1 [OSM-E-1]
pIC50 ([1]; Dundee assay): < 4.30

Cc1cc(/C=C2\S/C(=N\c3ccccc3)NC2=O)c(C)[nH]1 [OSM-S-108]
inhibition at 40 µM (HEK293): 44%

Cc1cc(/C=C2\S/C(=N\c3ccccc3)NC2=O)c(C)n1-c1ccccn1 [OSM-S-51]
pIC50 (PfDHODH): < 4.30

Cc1cc(C(=O)N(C(=O)NC2CCCCC2)C2CCCCC2)c(C)n1-c1ccc(F)cc1 [OSM-S-7]
pIC50 (PfDHODH): < 4.30

Cc1cc(/C=C2\SC(=Nc3ccccc3)N(c3ccccc3)C2=O)c(C)n1-c1cccc(F)c1 [OSM-L-1]
pIC50 ([5]; read-out: Pfal IC50 (Batra)): 5.49 | pIC50 ([6]; lab named in column head, read-out: Pfal (K1) IC50 (Batra)): < 5.30

Cc1cc(/C=C2\S/C(=N\c3ccc(O)cc3)NC2=O)c(C)n1-c1ccccc1 [OSM-S-115]
inhibition at 40 µM (HEK293): 35%

CC(=O)N(C1=NC(=O)/C(=C/c2cc(C)n(-c3ccccc3)c2C)S1)c1ccccc1 [OSM-S-49]
pIC50 (PfDHODH): < 4.30

Cc1cc(/C=C2\S/C(=N\c3ccccc3)N(c3ccccc3)C2=O)c(C)n1-c1ccc(C(F)(F)F)cc1 [OSM-S-52]
pIC50 (PfDHODH): < 4.30

Cc1c(NC(=O)CNC(=O)c2ccccc2)c(=O)n(-c2ccccc2)n1C [OSM-S-16]
pIC50 (PfDHODH): < 4.30

O=C(COCc1cn(-c2ccc(F)cc2)nn1)OCc1cn(-c2ccc(F)cc2)nn1 [OSM-E-7]
pIC50 ([1]; Dundee assay): < 4.30

O=C1N=C(Nc2ccccc2)S/C1=C\c1ccccc1 [OSM-S-55]
pIC50 (PfDHODH): < 4.30

O=C(CBr)OCc1cn(-c2ccc(F)cc2)nn1 [OSM-E-4]
pIC50 ([1]; Dundee assay): < 4.30

CCOC(=O)COCc1cn(-c2ccc(F)cc2)nn1 [OSM-E-5]
pIC50 ([1]; Dundee assay): < 4.30

CC(=O)N(C1=NC(=O)/C(=C/c2cc(C)n(-c3ccc(C)cc3)c2C)S1)c1ccccc1 [OSM-S-50]
pIC50 (PfDHODH): < 4.30

CC(=O)N(C1=NC(=O)/C(=C/c2cc(C)n(-c3ccc(C(F)(F)F)cc3)c2C)S1)c1ccccc1 [OSM-S-45]
pIC50 (PfDHODH): < 4.30

Cc1cc(C(=O)OCC(=O)Nc2c(C)n(C)n(-c3ccccc3)c2=O)c(C)n1-c1ccc(F)cc1 [OSM-S-6]
pIC50 (PfDHODH): < 4.30

Cc1cc(/C=C2\S/C(=N\c3ccccc3)N(C3CCCC3)C2=O)c(C)n1-c1ccc(C(F)(F)F)cc1 [OSM-S-54]
pIC50 (PfDHODH): < 4.30
